Tested on: 885724-159-R-J1-PDC KRAS PDC multicell spheroid viability
Experiment: Anticancer human tumor 885724-159-R-J1-PDC patient-derived pancreatic adenocarcinoma cell line growth inhibition [KRAS2]
Settings: for IC50: curve of first compound; for viability, T/C: stronger effect = lower value
Outline: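 KRAS-mutant tumor cells were grown as spheroids with HUVEC endothelial cells and human MSCs as stroma. Targeted agents were tested alone and with KRAS pathway inhibitors. Doses started at or near clinical Cmax, or 10 microM, descending half-log.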

[1] = second compound 0.1 µM, first compound 0.000316 µM
[2] = second compound 0.1 µM, first compound 0.001 µM
[3] = second compound 0.1 µM, first compound 0.00316 µM
[4] = second compound 0.1 µM, first compound 0.01 µM
[5] = second compound 0.1 µM, first compound 0.0316 µM
[6] = second compound 0.316 µM, first compound 0.000316 µM
[7] = second compound 0.316 µM, first compound 0.001 µM
[8] = second compound 0.316 µM, first compound 0.00316 µM
[9] = second compound 0.316 µM, first compound 0.01 µM
[10] = second compound 0.316 µM, first compound 0.0316 µM
[11] = second compound 1 µM, first compound 0.000316 µM
[12] = second compound 1 µM, first compound 0.001 µM
[13] = second compound 1 µM, first compound 0.00316 µM
[14] = second compound 1 µM, first compound 0.01 µM
[15] = second compound 1 µM, first compound 0.0316 µM
[16] = second compound 3.16 µM, first compound 0.000316 µM
[17] = second compound 3.16 µM, first compound 0.001 µM
[18] = second compound 3.16 µM, first compound 0.00316 µM
[19] = second compound 3.16 µM, first compound 0.01 µM
[20] = second compound 3.16 µM, first compound 0.0316 µM
[21] = second compound 10 µM, first compound 0.000316 µM
[22] = second compound 10 µM, first compound 0.001 µM
[23] = second compound 10 µM, first compound 0.00316 µM
[24] = second compound 10 µM, first compound 0.01 µM
[25] = second compound 10 µM, first compound 0.0316 µM
[26] = second compound 0.1 µM, first compound 0.1 µM
[27] = second compound 0.316 µM, first compound 0.1 µM
[28] = second compound 1 µM, first compound 0.1 µM
[29] = second compound 3.16 µM, first compound 0.1 µM
[30] = second compound 10 µM, first compound 0.1 µM
[31] = second compound 0.1 µM, first compound 0.316 µM
[32] = second compound 0.1 µM, first compound 1 µM
[33] = second compound 0.1 µM, first compound 3.16 µM
[34] = second compound 0.1 µM, first compound 10 µM
[35] = second compound 0.316 µM, first compound 0.316 µM
[36] = second compound 0.316 µM, first compound 1 µM
[37] = second compound 0.316 µM, first compound 3.16 µM
[38] = second compound 0.316 µM, first compound 10 µM
[39] = second compound 1 µM, first compound 0.316 µM
[40] = second compound 1 µM, first compound 1 µM
[41] = second compound 1 µM, first compound 3.16 µM
[42] = second compound 1 µM, first compound 10 µM
[43] = second compound 3.16 µM, first compound 0.316 µM
[44] = second compound 3.16 µM, first compound 1 µM
[45] = second compound 3.16 µM, first compound 3.16 µM
[46] = second compound 3.16 µM, first compound 10 µM
[47] = second compound 10 µM, first compound 0.316 µM
[48] = second compound 10 µM, first compound 1 µM
[49] = second compound 10 µM, first compound 3.16 µM
[50] = second compound 10 µM, first compound 10 µM
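Further: spheroids exposed to agents for 7 days before readout.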

CC(=O)Nc1cccc(-n2c(=O)n(C3CC3)c(=O)c3c(Nc4ccc(I)cc4F)n(C)c(=O)c(C)c32)c1 + CC1OCC2(CCN(c3cnc(Sc4ccnc(N)c4Cl)c(N)n3)CC2)C1N
IC50 (second compound 0.1 µM): 0.715 nM
IC50 (second compound 0.316 µM): 0.532 nM
IC50 (second compound 1 µM): 0.328 nM
IC50 (second compound 3.16 µM): 0.213 nM
IC50 (second compound 10 µM): 0.106 nM
viability, T/C (second compound 0.1 µM, first compound 0.0001 µM): 81.5%
viability, T/C [1]: 62%
viability, T/C [2]: 44.4%
viability, T/C [3]: 33.3%
viability, T/C [4]: 24.1%
viability, T/C [5]: 17.9%
viability, T/C (second compound 0.316 µM, first compound 0.0001 µM): 73.6%
viability, T/C [6]: 57.4%
viability, T/C [7]: 41.3%
viability, T/C [8]: 28.8%
viability, T/C [9]: 23.2%
viability, T/C [10]: 15.9%
viability, T/C (second compound 1 µM, first compound 0.0001 µM): 64.7%
viability, T/C [11]: 51.6%
viability, T/C [12]: 34.8%
viability, T/C [13]: 28%
viability, T/C [14]: 18.4%
viability, T/C [15]: 15%
viability, T/C (second compound 3.16 µM, first compound 0.0001 µM): 57%
viability, T/C [16]: 47.6%
viability, T/C [17]: 30.3%
viability, T/C [18]: 24.3%
viability, T/C [19]: 17.5%
viability, T/C [20]: 14.3%
viability, T/C (second compound 10 µM, first compound 0.0001 µM): 50.6%
viability, T/C [21]: 38.6%
viability, T/C [22]: 26%
viability, T/C [23]: 19.6%
viability, T/C [24]: 13.8%
viability, T/C [25]: 11.7%

CC(C)n1nc(-c2ccc3oc(N)nc3c2)c2c(N)ncnc21 + CC1OCC2(CCN(c3cnc(Sc4ccnc(N)c4Cl)c(N)n3)CC2)C1N
IC50 (second compound 0.1 µM): 63.3 nM
IC50 (second compound 0.316 µM): 49.8 nM
IC50 (second compound 1 µM): 33 nM
IC50 (second compound 3.16 µM): 12 nM
IC50 (second compound 10 µM): 13.1 nM
viability, T/C [1]: 90.5%
viability, T/C [2]: 79%
viability, T/C [3]: 69.8%
viability, T/C [4]: 64.8%
viability, T/C [5]: 53.5%
viability, T/C [26]: 46.8%
viability, T/C [6]: 86.5%
viability, T/C [7]: 75.7%
viability, T/C [8]: 65%
viability, T/C [9]: 58.6%
viability, T/C [10]: 55.7%
viability, T/C [27]: 44.8%
viability, T/C [11]: 76.2%
viability, T/C [12]: 69.1%
viability, T/C [13]: 63.2%
viability, T/C [14]: 53.6%
viability, T/C [15]: 53.4%
viability, T/C [28]: 43.5%
viability, T/C [16]: 77.7%
viability, T/C [17]: 79.3%
viability, T/C [18]: 61.5%
viability, T/C [19]: 53.3%
viability, T/C [20]: 45.5%
viability, T/C [29]: 47.3%
viability, T/C [21]: 72.6%
viability, T/C [22]: 70%
viability, T/C [23]: 63.2%
viability, T/C [24]: 51.5%
viability, T/C [25]: 44.1%
viability, T/C [30]: 39.6%

COc1cc(Nc2ncc3c(n2)-c2ccc(Cl)cc2C(c2c(F)cccc2OC)=NC3)ccc1C(=O)O + CC1OCC2(CCN(c3cnc(Sc4ccnc(N)c4Cl)c(N)n3)CC2)C1N
IC50 (second compound 0.1 µM): > 10000 nM
IC50 (second compound 0.316 µM): > 10000 nM
IC50 (second compound 1 µM): > 10000 nM
IC50 (second compound 3.16 µM): > 10000 nM
IC50 (second compound 10 µM): > 10000 nM
viability, T/C [5]: 104%
viability, T/C [26]: 91.3%
viability, T/C [31]: 92.4%
viability, T/C [32]: 96.7%
viability, T/C [33]: 99%
viability, T/C [34]: 103%
viability, T/C [10]: 95.1%
viability, T/C [27]: 90.7%
viability, T/C [35]: 85.8%
viability, T/C [36]: 84.1%
viability, T/C [37]: 91.2%
viability, T/C [38]: 93.5%
viability, T/C [15]: 90%
viability, T/C [28]: 88.8%
viability, T/C [39]: 78%
viability, T/C [40]: 79.6%
viability, T/C [41]: 79.4%
viability, T/C [42]: 87.7%
viability, T/C [20]: 81.7%
viability, T/C [29]: 82.2%
viability, T/C [43]: 76.4%
viability, T/C [44]: 73.8%
viability, T/C [45]: 75.2%
viability, T/C [46]: 80.3%
viability, T/C [25]: 76.5%
viability, T/C [30]: 69.3%
viability, T/C [47]: 70.6%
viability, T/C [48]: 67.7%
viability, T/C [49]: 70.9%
viability, T/C [50]: 70.9%

COc1cc2nccc(Oc3ccc(NC(=O)C4(C(=O)Nc5ccc(F)cc5)CC4)cc3)c2cc1OC + CC1OCC2(CCN(c3cnc(Sc4ccnc(N)c4Cl)c(N)n3)CC2)C1N
IC50 (second compound 0.1 µM): > 10000 nM
IC50 (second compound 0.316 µM): > 10000 nM
IC50 (second compound 1 µM): 3120 nM
IC50 (second compound 3.16 µM): 2980 nM
IC50 (second compound 10 µM): 2210 nM
viability, T/C [5]: 87.1%
viability, T/C [26]: 87.9%
viability, T/C [31]: 87.9%
viability, T/C [32]: 82.7%
viability, T/C [33]: 59.1%
viability, T/C [34]: 63%
viability, T/C [10]: 84.7%
viability, T/C [27]: 79.9%
viability, T/C [35]: 83.7%
viability, T/C [36]: 84.7%
viability, T/C [37]: 60.5%
viability, T/C [38]: 51.1%
viability, T/C [15]: 74.3%
viability, T/C [28]: 71.2%
viability, T/C [39]: 76.2%
viability, T/C [40]: 72.5%
viability, T/C [41]: 49.1%
viability, T/C [42]: 50.3%
viability, T/C [20]: 75.5%
viability, T/C [29]: 82.8%
viability, T/C [43]: 72.1%
viability, T/C [44]: 67.7%
viability, T/C [45]: 45.8%
viability, T/C [46]: 52.3%
viability, T/C [25]: 71.4%
viability, T/C [30]: 62.9%
viability, T/C [47]: 67.4%
viability, T/C [48]: 63.3%
viability, T/C [49]: 44%
viability, T/C [50]: 39.4%

Reference: PubChem BioAssay AID1963861 (Molecular Pharmacology Branch, DTP, NCI, 2024)
